The record followed here is patent US20240124491A1, “METHODS AND COMPOUNDS FOR TREATING FRIEDREICH'S ATAXIA” (Design Therapeutics, Inc., priority 2021, published 2024).

This experiment concerns human FXN. Nature of the experiment: EC50 assay: FXN mRNA expression by qRT-PCR in GM15850 cells after 48 hrs compound treatment. In kind it is cell-based. The following applies: 48 hrs incubation, hFXN expression normalized to hGAPDH (qRT-PCR), read-out: EC50 WT (nM, 48 hr). The method, boiled down:
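FXN transcript, normalized to GAPDH by TaqMan qRT-PCR, read out after 48 hrs of compound on GM15850 cells plated at 150,000 per well. Dosing used five 3-fold steps from 150 nM final, vehicle 0.01% DMSO.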

Like-named read-outs stand apart in the source and are kept apart here.

What is called EC50 is the concentration needed to bring the measured effect to its halfway point. In the case of `C=C(C)c1ccc(Oc2c(C)cc(F)cc2C)c(-c2cn(C)c(=O)c3[nH]c(C(=O)Nc4ccc(OCCOCCOCCOCCOCCOCCOCCOCCOCCNC(=O)CCNC(=O)c5nc(NC(=O)CCNC(=O)c6cc(NC(=O)c7nc(NC(=O)CCNC(=O)c8cc(NC(=O)c9nccn9C)cn8C)cn7C)cn6C)cn5C)cc4)cc23)c1` [Compound 197, N-(5-{[2-({2-[(2-{[26-(4-{14-[2-(4-fluoro-2,6-dimethylphenoxy)-5-(prop-1-en-2-yl)phenyl]-6-methyl-7-oxo-1H-pyrrolo[2,3-c]pyridine-2-amido}phenoxy)-3,6,9,12,15,18,21,24-octaoxahexacosan-1-yl]carbamoyl]ethyl)carbamoyl]-1-methylimidazol-4-yl]carbamoyl)ethyl]carbamoyl]-1-methylpyrrol-3-yl)-1-methyl-4-(3-{[1-methyl-4-(1-methylimidazole-2-amido)pyrrol-2-yl]formamido]propanamido)imidazole-2-carboxamide], the EC50 lay within 100 to 500 nM.
Consider `Cc1cc(F)cc(C)c1Oc1ccc(C(C)(C)O)cc1-c1cn(C)c(=O)c2[nH]c(C(=O)Nc3ccc(OCCOCCOCCOCCOCCOCCOCCOCCOCCNC(=O)CCNC(=O)c4nc(NC(=O)CCNC(=O)c5cc(NC(=O)c6nc(NC(=O)CCN)cn6C)cn5C)cn4C)cc3)cc12` [Compound 199, 4-(3-aminopropanamido)-N-(5-{[2-({2-[(2-{[26-(4-{4-[2-(4-fluoro-2,6-dimethylphenoxy)-5-(2-hydroxypropan-2-yl)phenyl]-6-methyl-7-oxo-1H-pyrrolo[2,3-c]pyridine-2-amido}phenoxy)-3,6,9,12,15,18,21,24-octaoxahexacosan-1-yl]carbamoyl}ethyl)carbamoyl]-1-methylimidazol-4-yl}carbamoyl)ethyl]carbamoyl}-1-methylpyrrol-3-yl)-1-methylimidazole-2-carboxamide], for which, under “Homo sapiens”, the EC50 is above 500 nM.
Take `Cc1sc2c(c1C)C(c1ccc(NC(=O)CCCCCCCCCCCCCCCNCCc3c[nH]c4ccccc34)cc1)=N[C@@H](CC(=O)Nc1ccc(OCCOCCOCCOCCOCCOCCOCCOCCOCCNC(=O)CCNC(=O)c3nc(NC(=O)CCNC(=O)c4cc(NC(=O)c5nc(NC(=O)CCNC(=O)c6cc(NC(=O)c7nccn7C)cn6C)cn5C)cn4C)cn3C)cc1)c1nnc(C)n1-2` [Compound 200]: the EC50 (Homo sapiens) was above 500 nM.
On to `CCCCCCCC(=O)N(CC#CC#Cc1ccc(NC(=O)C[C@@H]2N=C(c3ccc(Cl)cc3)c3c(sc(C)c3C)-n3c(C)nnc32)cc1)CCOCCOCCOCCOCCOCCNC(=O)CCNC(=O)c1nc(NC(=O)CCNC(=O)c2cc(NC(=O)c3nc(NC(=O)CCNC(=O)c4cc(NC(=O)c5nccn5C)cn4C)cn3C)cn2C)cn1C` [Compound 201], for which the EC50 (Homo sapiens) is above 500 nM.
Turning to `CCCCCCCC(=O)Nc1ccc(C2=N[C@@H](CC(=O)Nc3ccc(OCCOCCOCCOCCOCCOCCOCCOCCOCCNC(=O)CCNC(=O)c4nc(NC(=O)CCNC(=O)c5cc(NC(=O)c6nc(NC(=O)CCNC(=O)c7cc(NC(=O)c8nccn8C)cn7C)cn6C)cn5C)cn4C)cc3)c3nnc(C)n3-c3sc(C)c(C)c32)cc1` [Compound 203], the EC50 (Homo sapiens) lay within 100 to 500 nM.
Same read-out and setting: the figure for `CCCCCCCCCCCCCCCC(=O)Nc1ccc(C2=N[C@@H](CC(=O)Nc3ccc(OCCOCCOCCOCCOCCOCCOCCOCCOCCNC(=O)CCNC(=O)c4nc(NC(=O)CCNC(=O)c5cc(NC(=O)c6nc(NC(=O)CCNC(=O)c7cc(NC(=O)c8nccn8C)cn7C)cn6C)cn5C)cn4C)cc3)c3nnc(C)n3-c3sc(C)c(C)c32)cc1` [Compound 204] is above 500 nM.
With `Cc1cc(F)cc(C)c1Oc1ccc(C(C)(C)O)cc1-c1cn(C)c(=O)c2[nH]c(C(=O)Nc3ccc(OCCOCCOCCOCCOCCOCCOCCOCCNC(=O)CCNC(=O)c4nc(NC(=O)CCNC(=O)c5cc(NC(=O)c6nc(NC(=O)CCNC(=O)c7cc(NC(=O)c8nccn8C)cn7C)cn6C)cn5C)cn4C)cc3)cc12` [Compound 205, N-(5-{[2-({2-[(2-{[23-(4-{4-[2-(4-fluoro-2,6-dimethylphenoxy)-5-(2-hydroxypropan-2-yl)phenyl]-6-methyl-7-oxo-1H-pyrrolo[2,3-c]pyridine-2-amido}phenoxy)-3,6,9,12,15,18,21-heptaoxatricosan-1-yl]carbamoyl}ethyl)carbamoyl]-1-methylimidazol-4-yl}carbamoyl)ethyl]carbamoyl}-1-methylpyrrol-3-yl)-1-methyl-4-(3-{[1-methyl-4-(1-methylimidazole-2-amido)pyrrol-2-yl]formamido}propanamido)imidazole-2-carboxamide], the EC50 (Homo sapiens) is below 100 nM.
Take `Cn1cc(NC(=O)c2nc(NC(=O)CCNC(=O)c3cc(NC(=O)c4nccn4C)cn3C)cn2C)cc1C(=O)NCCC(=O)Nc1cn(C)c(C(=O)NCCC(=O)NCCOCCOCCOCCOCCOCCOCCOCCOCCOc2ccc(NC(=O)c3cc4c(-c5cc(S(C)(=O)=O)ccc5Oc5ccc(F)cc5F)cn(C)c(=O)c4[nH]3)cc2)n1` [Compound 207, N-(5-{[2-({2-[(2-{[26-(4-{14-[2-(2,4-difluorophenoxy)-5-methanesulfonylphenyl]-6-methyl-7-oxo-1H-pyrrolo[2,3-c]pyridine-2-amido}phenoxy)-3,6,9,12,15,18,21,24-octaoxahexacosan-1-yl]carbamoyl]ethyl)carbamoyl]-1-methylimidazol-4-yl}carbamoyl)ethyl]carbamoyl}-1-methylpyrrol-3-yl)-1-methyl-4-(3-{[1-methyl-4-(1-methylimidazole-2-amido)pyrrol-2-yl]formamido]propanamido)imidazole-2-carboxamide]: the EC50 (Homo sapiens) is below 100 nM.
As for `COCCOCCOCCOCCOCCOCCOc1cc(NC(=O)C[C@@H]2N=C(c3ccc(Cl)cc3)c3c(sc(C)c3C)-n3c(C)nnc32)ccc1OCCOCCOCCOCCOCCOCCOCCOCCOCCNC(=O)CCNC(=O)c1nc(NC(=O)CCNC(=O)c2cc(NC(=O)c3nc(NC(=O)CCNC(=O)c4cc(NC(=O)c5nccn5C)cn4C)cn3C)cn2C)cn1C` [Compound 211], the EC50 (Homo sapiens) fell in the range of 100 to 500 nM.
Regarding `Cc1cc(F)cc(C)c1Oc1ccc(C(C)(C)O)cc1-c1cn(C)c(=O)c2[nH]c(C(=O)Nc3ccc(OCCOCCOCCOCCOCCOCCOCCOCCOCCNC(=O)c4cc(NC(=O)c5nc(NC(=O)c6cc(NC(=O)c7ccc8nc(-c9nccn9C)[nH]c8c7)cn6C)cn5C)cn4C)cc3)cc12` [Compound 215, N-[5-({2-[(5-{[26-(4-{4-[2-(4-fluoro-2,6-dimethylphenoxy)-5-(2-hydroxypropan-2-yl)phenyl]-6-methyl-7-oxo-1H-pyrrolo[2,3-c]pyridine-2-amido}phenoxy)-3,6,9,12,15,18,21,24-octaoxahexacosan-1-yl]carbamoyl}-1-methylpyrrol-3-yl)carbamoyl]-1-methylimidazol-4-yl]carbamoyl)-1-methylpyrrol-3-yl]-2-(1-methylimidazol-2-yl)-3H-1,3-benzodiazole-5-carboxamide], the EC50 (Homo sapiens) was above 500 nM.
As for `Cc1cc(F)cc(C)c1Oc1ccc(C(C)(C)O)cc1-c1cn(C)c(=O)c2[nH]c(C(=O)Nc3ccc(OCCOCCOCCOCCOCCOCCOCCOCCn4cc(CNC(=O)c5nc(NC(=O)CCNC(=O)c6cc(NC(=O)c7nc(NC(=O)CCNC(=O)c8cc(NC(=O)c9nccn9C)cn8C)cn7C)cn6C)cn5C)nn4)cc3)cc12` [Compound 217, N-({1-[23-(4-{4-[2-(4-fluoro-2,6-dimethylphenoxy)-5-(2-hydroxypropan-2-yl)phenyl]-6-methyl-7-oxo-1H-pyrrolo[2,3-c]pyridine-2-amido}phenoxy)-3,6,9,12,15,18,21-heptaoxatricosan-1-yl]-1,2,3-triazol-4-yl}methyl)-1-methyl-4-[3-({1-methyl-4-[1-methyl-4-(3-{[1-methyl-4-(1-methylimidazole-2-amido)pyrrol-2-yl]formamido}propanamido)imidazole-2-amido]pyrrol-2-yl}formamido)propanamido]imidazole-2-carboxamide], the EC50 (Homo sapiens) was below 100 nM.
Regarding `Cc1cc(F)cc(C)c1Oc1ccc(C(C)(C)O)cc1-c1cn(C)c(=O)c2[nH]c(C(=O)Nc3ccc(OCCOCCOCCOCCOCCOCCOCCOCCOCCNC(=O)CCNC(=O)c4nc(NC(=O)CCNC(=O)c5cc(NC(=O)c6nc(NC(=O)CCNC(=O)c7cc(NC(=O)c8nccn8C)c[nH]7)cn6C)c[nH]5)cn4C)cc3)cc12` [Compound 224, N-(5-{[2-({2-[(2-{[26-(4-{4-[2-(4-fluoro-2,6-dimethylphenoxy)-5-(2-hydroxypropan-2-yl)phenyl]-6-methyl-7-oxo-1H-pyrrolo[2,3-c]pyridine-2-amido}phenoxy)-3,6,9,12,15,18,21,24-octaoxahexacosan-1-yl]carbamoyl]ethyl)carbamoyl]-1-methylimidazol-4-yl]carbamoyl)ethyl]carbamoyl]-1H-pyrrol-3-yl)-1-methyl-4-(3-{[4-(1-methylimidazole-2-amido)-1H-pyrrol-2-yl]formamido]propanamido)imidazole-2-carboxamide], the EC50 (Homo sapiens) is below 100 nM.
Turning to `Cc1sc2c(c1C)C(c1ccc(Cl)cc1)=N[C@@H](CC(=O)Nc1ccc(OCCOCCOCCOCCOCCOCCOCCOCCOCCNC(=O)CCNC(=O)CCNC(=O)c3nc(NC(=O)CCNC(=O)c4cc(NC(=O)c5nc(NC(=O)CCNC(=O)c6cc(NC(=O)c7nccn7C)cn6C)cn5C)cn4C)cn3C)cc1)c1nnc(C)n1-2` [Compound 229], for the setting “Homo sapiens”, the EC50 was below 100 nM.
With `Cc1sc2c(c1C)C(c1ccc(Cl)cc1)=N[C@H](CC(=O)Nc1ccc(OCCOCCOCCOCCOCCOCCOCCOCCOCCNC(=O)CCNC(=O)c3nc(NC(=O)CCNC(=O)c4cc(NC(=O)c5nc(NC(=O)CCNC(=O)c6cc(NC(=O)c7nccn7C)cn6C)cn5C)cn4C)cn3C)cc1)c1nnc(C)n1-2` [Compound 231], the EC50 (Homo sapiens) was below 100 nM.
Regarding `Cc1cc(F)cc(C)c1Oc1ccc(C(C)(C)O)cc1-c1cn(C)c(=O)c2[nH]c(C(=O)Nc3ccc(OCCOCCOCCOCCOCCOCCOCCOCCOCCNC(=O)CCNC(=O)c4nc(NC(=O)CCNC(=O)c5cc(NC(=O)c6nc(NC(=O)CCNC(=O)c7cc(NC(=O)c8nccn8C)cn7C)cn6C)cn5C)cn4C)c(OC(=O)c4cc5c(-c6cc(C(C)(C)O)ccc6Oc6c(C)cc(F)cc6C)cn(C)c(=O)c5[nH]4)c3)cc12` [Compound 240], the EC50 (Homo sapiens) was below 100 nM.
